Measured values published in patent US10822311B2, “Pyrimidines and variants thereof, and uses therefor” (Afferent Pharmaceuticals Inc., priority 2016, dated 2020).
Read-outs that look alike come from different tables or passages of the source.

Tests used:
[1] = target: T1, human P2X3 receptor (homomeric P2X3 channels) (Homo sapiens, UniProt P56373); assay: FlexStation calcium fluorescence assay, homomeric P2X3 channels in HEK293 cells; assay type: cell-based; settings: for Selectivity P2X3/P2X2/3: Ratio=10^(P2X3pIC50−P2X2/3pIC50); for Selectivity, R = OMe / P2X3 mean pIC50, R = OMe: Table 3B; for Selectivity, R = OMe: P2X3 vs P2X2/3 potency ratio; for P2X3 mean pIC50, R = OMe: Table 2
T1 construct: expressed in transfected cells; host or cells: HEK293 human embryonic kidney cells (HEK-hP2X3)
T1 sequence (P56373 1-397): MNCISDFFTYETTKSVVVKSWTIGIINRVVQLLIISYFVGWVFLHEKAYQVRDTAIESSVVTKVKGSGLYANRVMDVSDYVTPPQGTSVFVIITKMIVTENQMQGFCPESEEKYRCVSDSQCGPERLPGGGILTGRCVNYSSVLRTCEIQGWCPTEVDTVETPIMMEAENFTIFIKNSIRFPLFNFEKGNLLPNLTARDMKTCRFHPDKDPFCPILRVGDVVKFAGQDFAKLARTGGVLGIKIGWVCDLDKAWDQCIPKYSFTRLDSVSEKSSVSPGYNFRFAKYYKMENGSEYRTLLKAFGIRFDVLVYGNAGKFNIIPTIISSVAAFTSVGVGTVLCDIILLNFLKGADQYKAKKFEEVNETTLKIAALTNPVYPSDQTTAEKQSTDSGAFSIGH
Experimental: (§1) 1321N1 human astrocytoma and HEK293 human embryonic kidney cells were stably transfected with human P2X2 and P2X3 receptor subunits to form heteromeric P2X2/3 channels and passaged in flasks. Additionally, HEK293 cells were stably transfected with human P2X3 receptor subunits to form homomeric P2X3 channels.
(§2) Approximately 24 hours before the FlexStation calcium fluorescence experiment, cells were released from their flasks, centrifuged and re-suspended in nutrient medium. The cells were aliquoted into black-wall, clear-bottom 96 well plates at a density of 25,000 cells per well and incubated overnight in a humidified, CO2-enriched (5%) atmosphere at 37° C.
(§3) On the day of the experiment, cells were washed with assay buffer (calcium- and magnesium-free Hank's balanced salt solution, 20 mM HEPES, 2 mM CaCl2; AB) and loaded with 4 μM Fluo-4 (P2X2/3) or Calcium 6 (Molecular Devices, according to manufacturer's instructions; P2X3) calcium-sensitive fluorescent dye in 100 μL AB.
(§4) After 1 hour of dye loading at 37° C., 1321N1-hP2X2/3 cells were washed two times with AB and test compound or vehicle added to each well in a total volume of 150 μL AB. HEK-hP2X3 cells were not washed because the Calcium 6 dye kit includes an extracellular dye that quenches unabsorbed Calcium 6 dye; test compound or vehicle were added directly to the assay plates to achieve the appropriate concentration of test compound in a total volume of 150 μL AB.
(§5) After 20 minutes incubation at room temperature and protected from light, the assay plates were loaded into the FlexStation microplate reader and baseline fluorescence measured with an excitation wavelength of 485 nm and emission wavelength readings centered at 525 nm (515 nm cut off).
(§6) The agonist was dispensed by the FlexStation during fluorescence measurement to construct agonist activation and antagonist inhibition curves. The final agonist concentration for inhibition was 1 μM α,β-meATP for P2X3 and 3 μM ATP for P2X2/3. Peak fluorescence was measured and curves generated using a four parameter nonlinear regression equation.

[2] = target: T2, human P2X2/3 (heteromeric P2X2/3 channels) (Homo sapiens, UniProt P56373+Q9UBL9); assay: FlexStation calcium fluorescence assay, heteromeric P2X2/3 channels in 1321N1 cells; assay type: cell-based; settings: for P2X2/3 mean pIC50, R = OMe: Table 3B, Table 2
T2 construct: expressed in transfected cells; host or cells: 1321N1 human astrocytoma cells (1321N1-hP2X2/3)
T2 sequence (P56373 1-397): T1 sequence (P56373 1-397)
T2 sequence (Q9UBL9 1-471): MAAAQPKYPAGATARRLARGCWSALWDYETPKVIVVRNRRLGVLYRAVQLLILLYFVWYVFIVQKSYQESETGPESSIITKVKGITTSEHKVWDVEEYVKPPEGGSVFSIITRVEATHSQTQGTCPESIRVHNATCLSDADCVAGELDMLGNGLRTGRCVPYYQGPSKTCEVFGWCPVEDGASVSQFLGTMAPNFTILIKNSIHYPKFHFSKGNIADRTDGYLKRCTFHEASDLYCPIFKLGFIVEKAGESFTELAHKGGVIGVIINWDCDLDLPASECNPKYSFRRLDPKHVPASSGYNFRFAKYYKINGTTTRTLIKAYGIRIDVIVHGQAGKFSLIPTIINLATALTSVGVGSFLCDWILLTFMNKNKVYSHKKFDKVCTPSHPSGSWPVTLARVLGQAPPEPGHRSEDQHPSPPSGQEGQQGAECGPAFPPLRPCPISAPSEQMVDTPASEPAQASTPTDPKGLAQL
Experimental: as §1, §2, §3, §4, §5, §6

[3] = HEK293 cells, hP2X3, agonist 1 μM α,β-meATP, read-out: Average pIC50 P2X3 (converted)
[4] = 1321N1 cells, hP2X2/3, agonist 3 μM ATP, highest concentration tested is 10 μM, read-out: Average pIC50 P2X2/3 (converted)
[5] = hP2X2/3, 1321N1 (astrocytoma) cells

| SMILES | IC50 [1, 3] | IC50 [2, 4] | Selectivity P2X3/P2X2/3 [1] | other results |
| --- | --- | --- | --- | --- |
| COc1cc(Sc2cnc(N)nc2N)c(C(C)C)cc1OC [Compound 1] | – | – | – | Average pIC50 P2X3 ([1]; HEK293 cells, hP2X3, agonist 1 μM α,β-meATP): 7.0; P2X3 mean pIC50, X = S ([1]; Table 3A, sulfur-linked, hP2X3, HEK293 cells, listed as Row A, X = S): 7.0; IC50 ([1]; Table 3A, sulfur-linked, hP2X3, HEK293 cells, read-out: P2X3 mean pIC50, X = S (converted)): 100 nM; Average pIC50 P2X2/3 ([2]; 1321N1 cells, hP2X2/3, agonist 3 μM ATP, highest concentration tested is 10 μM): <5; P2X2/3 mean pIC50, X = S ([2]; Table 3A, sulfur-linked, hP2X2/3, 1321N1 (astrocytoma) cells, highest concentration tested is 10 μM, listed as Row A, X = S): <5; IC50 ([2]; Table 3A, sulfur-linked, hP2X2/3, 1321N1 (astrocytoma) cells, highest concentration tested is 10 μM, read-out: P2X2/3 mean pIC50, X = S (converted)): > 10 µM |
| C#Cc1cc(Oc2cnc(N)nc2N)c(C(C)C)nc1OC [Compound 19] | 6.31 nM | 0.2 µM | – | – |
| COc1cc(C(C)C)c(Sc2cnc(N)nc2N)cc1S(N)(=O)=O [Compound 3] | 158 nM | > 10 µM | – | – |
| COc1cc(Oc2cnc(N)nc2NC(C)C)c(C(C)C)cc1OC [Compound 35] | 3980 nM | > 10 µM | >2.5 | – |
| CNc1nc(N)ncc1Oc1cc(OC)c(OC)cc1C(C)C [Compound 34] | 1580 nM | > 10 µM | >6.4 | – |
| COc1cc(Oc2cnc(NC(CCO)CCO)nc2N)c(C(C)C)cc1OC [Compound 21] | 79.4 nM | 0.398 µM | 5.0 | – |
| COc1ccc(Oc2cnc(N)nc2N)c(C(C)C)n1 [Compound 14] | 1260 nM | > 10 µM | – | – |
| COc1nc(C(C)C)c(Oc2cnc(N)nc2N)cc1S(N)(=O)=O [Compound 20] | 20 nM | 0.398 µM | – | – |
| COc1cc(C(C)C)c(Sc2cnc(N)nc2N)cc1Br [Compound 8] | 200 nM | > 10 µM | – | – |
| CC#Cc1cc(Sc2cnc(N)nc2N)c(C(C)C)cc1OC [Compound 6] | 794 nM | > 10 µM | – | – |
| COc1nc(C(C)C)c(Oc2cnc(N)nc2N)cc1C(F)(F)F [Compound 18] | 63.1 nM | 1.58 µM | – | – |
| COc1cc(Oc2cnc(NC(CO)CO)nc2N)c(C(C)C)cc1OC [Compound 30] | 126 nM | 0.631 µM | 4.9 | Selectivity, R = OMe [1]: 5.0; P2X3 mean pIC50, R = OMe ([1]; hP2X3, HEK293 cells): 6.9; P2X2/3 mean pIC50, R = OMe [2, 5]: 6.2 |
| COc1cc(Oc2cnc(NC(C)(C)C)nc2N)c(C(C)C)cc1OC [Compound 23] | 1000 nM | > 10 µM | >10.5 | – |
| COc1cc(Nc2cnc(N)nc2N)c(C(C)C)cc1OC [Compound 47] | 49 nM | 1.38 µM | – | – |
| COc1cc(C(C)C)c(Sc2cnc(N)nc2N)cc1-c1nnn[nH]1 [Compound 11] | 158 nM | > 10 µM | – | – |
| COc1cc(Oc2cnc(N)nc2Nc2ccccc2)c(C(C)C)cc1OC [Compound 42] | 1000 nM | > 10 µM | >10 | – |
| COc1cc(Oc2cnc(N)nc2NC2CCOCC2)c(C(C)C)cc1OC [Compound 40] | 1260 nM | > 10 µM | >8 | – |
| COc1nc(C(C)C)c(Oc2cnc(N)nc2N)cc1C#N [Compound 17] | 1000 nM | > 10 µM | – | – |
| COc1cc(Oc2cnc(N)nc2NC2CC2)c(C(C)C)cc1OC [Compound 32] | 794 nM | 1.26 µM | 1.6 | – |
| COc1cc(C(C)C)c(Sc2cnc(N)nc2N)cc1C(=O)O [Compound 12] | 5010 nM | > 10 µM | – | – |

| SMILES | IC50 [1, 3] | IC50 [2, 4] | Selectivity P2X3/P2X2/3 [1] | other results |
| --- | --- | --- | --- | --- |
| COc1cc(Oc2cnc(NC3CC3)nc2N)c(C(C)C)cc1OC [Compound 26] | 631 nM | 3.16 µM | 5.4 | – |
| COc1cc(Oc2cnc(N)nc2NCCS(C)(=O)=O)c(C(C)C)cc1OC [Compound 41] | 398 nM | > 10 µM | >27 | – |
| COc1cc(Oc2cnc(NC3CCC3)nc2N)c(C(C)C)cc1OC [Compound 27] | 200 nM | 0.501 µM | 2.5 | – |
| COc1cc(Oc2cnc(NCCO)nc2N)c(C(C)C)cc1OC [Compound 22] | 200 nM | 1.58 µM | 7.9 | Selectivity, R = OMe [1]: 7.9; P2X3 mean pIC50, R = OMe ([1]; hP2X3, HEK293 cells): 6.7; P2X2/3 mean pIC50, R = OMe [2, 5]: 5.8 |
| COc1cc(Oc2cnc(N)nc2N)c(C(C)C)nc1OC [Compound 13] | 39.8 nM | 0.2 µM | – | – |
| COc1nc(C(C)C)c(Oc2cnc(N)nc2N)cc1S(C)(=O)=O [Compound 16] | 63.1 nM | > 10 µM | – | – |
| COc1cc(Oc2cnc(N)nc2Nc2cccnn2)c(C(C)C)cc1OC [Compound 45] | 3160 nM | > 10 µM | 3.5 | – |
| COc1cc(Oc2cnc(N)nc2NCCN(C)C)c(C(C)C)cc1OC [Compound 38] | 158 nM | 2.51 µM | 17 | – |
| COCCNc1nc(N)ncc1Oc1cc(OC)c(OC)cc1C(C)C [Compound 36] | 1000 nM | > 10 µM | >10 | – |
| COc1cc(Oc2cnc(NCC(C)C)nc2N)c(C(C)C)cc1OC [Compound 25] | 631 nM | 2.51 µM | 4.3 | – |
| COc1cc(Oc2cnc(N)nc2NC2CCN(C)CC2)c(C(C)C)cc1OC [Compound 39] | 316 nM | 6.31 µM | 20 | – |
| COc1cc(C(C)C)c(Sc2cnc(N)nc2N)cc1C [Compound 7] | 316 nM | > 10 µM | – | – |
| COc1cc(C(C)C)c(Sc2cnc(N)nc2N)cc1S(C)(=O)=O [Compound 2] | 501 nM | > 10 µM | – | P2X3 mean pIC50, X = S ([1]; Table 3A, sulfur-linked, hP2X3, HEK293 cells): 6.3; P2X2/3 mean pIC50, X = S ([2]; Table 3A, sulfur-linked, hP2X2/3, 1321N1 (astrocytoma) cells, highest concentration tested is 10 μM): <5 |
| COc1cc(Oc2cnc(NC3CCOCC3)nc2N)c(C(C)C)cc1OC [Compound 28] | 398 nM | 1.26 µM | 3.2 | – |
| COc1cc(Oc2cnc(N)nc2NCc2ccccc2)c(C(C)C)cc1OC [Compound 46] | 631 nM | 3.16 µM | 4.8 | – |
| COc1nc(C(C)C)c(Oc2cnc(N)nc2N)cc1I [Compound 15] | 63.1 nM | 0.398 µM | 6.5 | – |
| C#Cc1cc(Sc2cnc(N)nc2N)c(C(C)C)cc1OC [Compound 5] | 39.8 nM | 3.98 µM | – | – |
| COc1cc(Oc2cnc(NCC(O)CO)nc2N)c(C(C)C)cc1OC (stereo not shown) [Compound 31] | 200 nM | 3.98 µM | 21 | Selectivity, R = OMe [1]: 20; P2X3 mean pIC50, R = OMe ([1]; hP2X3, HEK293 cells): 6.7; P2X2/3 mean pIC50, R = OMe [2, 5]: 5.4 |
| COc1cc(Oc2cnc(N)nc2NCCO)c(C(C)C)cc1OC [Compound 37] | 1000 nM | > 10 µM | >10 | – |
